According to patent publication US20110200625A1, “PHARMACEUTICAL COMPOSITION” (priority 2010, published 2011):

Test: presence of drug in the epidermis after the composition is applied to the skin
Format: in vivo
Details: after the composition containing the drug has been applied to the skin
Text: In the present invention, the Hsieh enhancer is used in a different way, that is, as a penetration-facilitator for delivery of drug to the dermal layer of the skin without significant, if any, systemic absorption of the drug into the blood stream of the user.

## CO[C@H]1C[C@@H]2CC[C@@H](C)[C@@](O)(O2)C(=O)C(=O)N2CCCC[C@H]2C(=O)O[C@H]([C@H](C)C[C@@H]2CC[C@@H](O)[C@H](OC)C2)CC(=O)[C@H](C)/C=C(\C)[C@@H](O)[C@@H](OC)C(=O)[C@H](C)C[C@H](C)/C=C/C=C/C=C/1C [rapamycin]
  drug observed to be present in the epidermis, time after application: 72 h
